Each structure is given as a SMILES string. Converted amounts (≈) assume the structure as drawn. Where two headings read alike, the source gives them in different places.

A short description of one series: in vivo. To be noted: mouse, 50 mg/kg.
For series [1], the system named is Haemophilus influenzae Wy21. The series can be described thus: Human bacteria MIC. It counts as cell-based. As to the method: The values were determined by serial dilutions in nutrient agar with 5% chocolated horse blood after incubations for 18 hours at 37° C.
A short description of series [2]: Mean serum concentrations in neonatal piglets after intramuscular or oral administration. To be noted: pig, 50 mg/kg; for concentration at 40 min: 40° (printed). It counts as in vivo. As to the method:
Blood levels were assessed in neonatal piglets (2 to 4 animals per group and mean bodyweights about 2 kg). The dose was 50 mg/kg (dose solution=25 mg/ml in 25% ethanol). Doses were given by intramscular injection and orally by stomach tube. Piglets were beld at intervals up to 6 and at 24 hours, serum assayed microbiologically (B. subtilis ATCC 6633).

Setting [3] is: Haemophilus influenzae Wy21, nutrient agar, 5% chocolated horse blood, 18 hours 37° C., read-out: M.I.C.

In the series “in vivo” (po), `C/C(=C\C(=O)OC1CCC(=NO)CC1)C[C@@H]1OC[C@H](C[C@@H]2O[C@H]2[C@@H](C)[C@H](C)O)[C@@H](O)[C@H]1O` (some centres unmarked) [Example 3, 4-Hydroxyiminocyclohexyl monate A] showed a concentration at 5 min of 3500 ng/mL, a concentration at 10 min of 3500 ng/mL, a concentration at 20 min of 2200 ng/mL and a concentration at 0.5 h of 1900 ng/mL. In the series “in vivo” (po), this compound returned a concentration at 0.75 h of 1600 ng/mL, a concentration at 1 h of 800 ng/mL and a concentration at 1.5 h of 600 ng/mL. In “in vivo” (sc), the concentration at 5 min came to 20600 ng/mL, the concentration at 10 min was found to be 23000 ng/mL, the concentration at 20 min worked out at 16600 ng/mL and the concentration at 0.5 h came out at 7900 ng/mL. For the same compound, in “in vivo” (sc), the concentration at 0.75 h was determined as 2900 ng/mL, the concentration at 1 h worked out at 1500 ng/mL and the concentration at 1.5 h came to 300 ng/mL.

Regarding `C/C(=C\C(=O)OCCCC(=NO)c1ccccc1)C[C@@H]1OC[C@H](C[C@@H]2O[C@H]2[C@@H](C)[C@H](C)O)[C@@H](O)[C@H]1O` [Example 1, 4-Hydroxyimino-4-phenylbutyl monate A], in “in vivo” (po), the concentration at 5 min came out at 1000 ng/mL, the concentration at 10 min is 790 ng/mL, the concentration at 20 min worked out at 230 ng/mL and the concentration at 0.5 h is less than 200 ng/mL. In “in vivo” (po), this compound registered a concentration at 0.75 h of less than 200 ng/mL, a concentration at 1 h of less than 120 ng/mL and a concentration at 1.5 h of less than 200 ng/mL. In “in vivo” (sc), this compound displayed a concentration at 5 min of 4400 ng/mL, a concentration at 10 min of 6500 ng/mL, a concentration at 20 min of 3100 ng/mL and a concentration at 0.5 h of 1600 ng/mL. In the series “in vivo” (sc), this compound had a concentration at 0.75 h of 460 ng/mL, a concentration at 1 h of 280 ng/mL and a concentration at 1.5 h of less than 200 ng/mL. Also, the MIC in series [1] (setting [3]) stood at 0.5 µg/mL (≈ 0.989 µM). In series [2] (im), this compound came in with a concentration at 40 min of 6300 ng/mL, a concentration at 10 min of 7000 ng/mL, a concentration at 20 min of 6700 ng/mL and a concentration at 1 h of 6600 ng/mL. The concentration at 2 h in series [2] (im) worked out at 5200 ng/mL. In series [2] (im, 3h), this compound came in with a concentration at 3 h of 2900 ng/mL. For the same compound, the concentration at 4 h in series [2] (im, 4h) was 1700 ng/mL. Besides, in series [2] (im, 6h), the concentration at 6 h was less than 900 ng/mL. Besides, in series [2] (po), the concentration at 40 min amounted to 3300 ng/mL, the concentration at 10 min turned out to be 3000 ng/mL, the concentration at 20 min was found to be 3000 ng/mL and the concentration at 1 h worked out at 1200 ng/mL. This compound returned a concentration at 2 h in series [2] (po) of less than 1000 ng/mL.

In “in vivo” (po), `C/C(=C\C(=O)OCCCCCC=NN(C)C)C[C@@H]1OC[C@H](C[C@@H]2O[C@H]2[C@@H](C)[C@H](C)O)[C@@H](O)[C@H]1O` [Example 6, 6-Dimethylhydrazonohexyl monate A] registered a concentration at 5 min of 3400 ng/mL, a concentration at 10 min of 3400 ng/mL, a concentration at 20 min of 680 ng/mL and a concentration at 0.5 h of less than 600 ng/mL. Moreover, in the series “in vivo” (po), the concentration at 0.75 h is less than 600 ng/mL, the concentration at 1 h was less than 600 ng/mL and the concentration at 1.5 h is less than 600 ng/mL. Besides, in the series “in vivo” (sc), the concentration at 5 min was 12100 ng/mL, the concentration at 10 min is 14800 ng/mL, the concentration at 20 min came to 9700 ng/mL and the concentration at 0.5 h is 6800 ng/mL. In “in vivo” (sc), this compound yielded a concentration at 0.75 h of 3800 ng/mL, a concentration at 1 h of 2300 ng/mL and a concentration at 1.5 h of less than 600 ng/mL. In series [1] (Haemophilus influenzae, WY21, 18 h), this compound came in with an MIC of 0.5 µg/mL (≈ 1.03 µM).

On to `C/C(=C\C(=O)OCCCC(=NNC(N)=O)c1ccccc1)C[C@@H]1OC[C@H](C[C@@H]2O[C@H]2[C@@H](C)[C@H](C)O)[C@@H](O)[C@H]1O` [Example 2, 4-Phenyl-4-semicarbazonobutyl monate A], for which, in series [1] (setting [3]), the MIC came out at 1 µg/mL (≈ 1.83 µM).

For `C/C(=C\C(=O)OCc1ccc(C=NO)o1)C[C@@H]1OC[C@H](C[C@@H]2O[C@H]2[C@@H](C)[C@H](C)O)[C@@H](O)[C@H]1O` [Example 7, 5-Hydroxyiminomethylfurfuryl monate A], the MIC in series [1] (setting [3]) turned out to be 0.25 µg/mL (≈ 0.535 µM).

Source of the values: patent US4362743A, “Antibacterial monic acid esters” (Beecham Group Limited, priority 1980, dated 1982).
